Assay results: US20130072470A1 (ABBVIE INC., priority 2011, published 2013)

target: T1, Jak3 enzyme (aa 811-1103) (Homo sapiens, UniProt P52333); experiment: In vitro Jak3 kinase activity measured by time-resolved fluorescence resonance energy transfer (trFRET); type: biochemical; conditions: ATP 0.001 mM
T1 construct: Jak3 enzyme (aa 811-1103); expressed in SF9 cells as a GST fusion; GST; made in house; host or cells: SF9 insect cells
Method: In Vitro Jak3 Kinase Activity Measured by Time-Resolved Fluorescence Resonance Energy Transfer (trFRET)
Varying concentrations of inhibitor were added to an assay well containing: Jak3 enzyme (aa 811-1103; expressed in SF9 cells as a GST fusion and purified by glutathione affinity chromatography; 3 nM), peptide substrate (biotin-TYR2, Sequence: Biotin-(Ahx)-AEEEYFFLFA-amide; 2 μM), MOPSO pH 6.5 (50 mM), MgCl2 (10 mM), MnCl2 (2 mM), DTT (2.5 mM), BSA (0.01% w/v), Na3VO4 (0.1 mM) and ATP (0.001 mM). After about 60 min incubation at rt, the reaction was quenched by addition of EDTA (final concentration: 100 mM) and developed by addition of revelation reagents (final approximate concentrations: 30 mM HEPES pH 7.0, 0.06% BSA, 0.006% Tween-20, 0.24 M KF, 80 ng/mL PT66K (europium labeled anti-phosphotyrosine antibody cat #61T66KLB Cisbio, Bedford, Mass.) and 0.8 μg/mL SAXL (Phycolink streptavidin-allophycocyanin acceptor, cat #PJ52S, Prozyme, San Leandro, Calif.). The developed reaction was incubated in the dark either at about 4° C., for about 14 h or for about 60 min at rt, then read via a time-resolved fluorescence detector (Rubystar, BMG) using a 337 nm laser for excitation and emission wavelength of 665 nm. Within the linear range of the assay, the observed signal at 665 nm is directly related to phosphorylated product and used to calculate the IC50 values.

T1 sequence (P52333 811-1103): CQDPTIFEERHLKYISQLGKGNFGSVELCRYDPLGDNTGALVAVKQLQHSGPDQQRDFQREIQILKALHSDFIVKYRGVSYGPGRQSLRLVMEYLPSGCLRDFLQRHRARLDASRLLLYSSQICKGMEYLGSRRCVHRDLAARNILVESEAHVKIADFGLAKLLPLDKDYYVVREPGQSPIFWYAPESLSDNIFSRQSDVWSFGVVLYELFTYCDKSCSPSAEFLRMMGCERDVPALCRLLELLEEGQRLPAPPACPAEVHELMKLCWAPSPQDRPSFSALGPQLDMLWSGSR

IC50 [µM]	SMILES
1 to 10	CC[C@@H]1CN(C(=O)CCC(F)(F)F)C[C@@H]1c1cnc2cnc3[nH]ccc3n12 [Example #15, 1-((3S,4R)-3-ethyl-4-(3H-imidazo[1,2-a]pyrrolo[2,3-e]pyrazin-8-yl)pyrrolidin-1-yl)-4,4,4-trifluorobutan-1-one]
1 to 10	CC[C@@H]1CN(C(=O)NCC(F)F)C[C@@H]1c1cnc2cnc3[nH]ccc3n12 [Example #14, (3S,4R)—N-(2,2-difluoroethyl)-3-ethyl-4-(3H-imidazo[1,2-a]pyrrolo[2,3-e]pyrazin-8-yl)pyrrolidine-1-carboxamide]
1 to 10	CC[C@@H]1C[C@@H](CCC#N)C[C@@H]1c1nnc2cnc3[nH]ccc3n12 [Example #23, 3-((1R,3R,4S)-3-ethyl-4-(6H-pyrrolo[2,3-e][1,2,4]triazolo[4,3-a]pyrazin-1-yl)cyclopentyl)propanenitrile]
> 10	C[C@@H]1C[C@@H](N2CCC(C#N)CC2)C[C@@H]1c1cnc2cnc3[nH]ccc3n12 [Example #8, 1-((1R,3S,4R)-3-(3H-imidazo[1,2-a]pyrrolo[2,3-e]pyrazin-8-yl)-4-methylcyclopentyl)piperidine-4-carbonitrile]
> 10	Cc1cnc(C(=O)N[C@H]2C[C@@H](C)[C@@H](c3cnc4cnc5[nH]ccc5n34)C2)cn1 [Example #1, N-((1S,3S,4R)-3-(3H-imidazo[1,2-a]pyrrolo[2,3-e]pyrazin-8-yl)-4-methylcyclopentyl)-5-methylpyrazine-2-carboxamide]
1 to 10	CC[C@@H]1C[C@H](CCC#N)C[C@@H]1c1nnc2cnc3[nH]ccc3n12 [Example #22, 3-((1S,3R,4S)-3-ethyl-4-(6H-pyrrolo[2,3-e][1,2,4]triazolo[4,3-a]pyrazin-1-yl)cyclopentyl)propanenitrile]

same assay, conditions: ATP 0.001 mM, Table B

IC50 [µM]	SMILES
1 to 10	CC[C@@H]1C[C@H](NC(=O)CCc2ccc(C)o2)C[C@@H]1c1nnc2cnc3[nH]ccc3n12 [compound 69, N-((1S,3R,4S)-3-ethyl-4-(6H-pyrrolo[2,3-e][1,2,4]triazolo[4,3-a]pyrazin-1-yl)cyclopentyl)-3-(5-methylfuran-2-yl)propanamide]
> 10	CC[C@@H]1C[C@H](NC(=O)COc2cc(C)on2)C[C@@H]1c1nnc2cnc3[nH]ccc3n12 [compound 26, N-((1S,3R,4S)-3-ethyl-4-(6H-pyrrolo[2,3-e][1,2,4]triazolo[4,3-a]pyrazin-1-yl)cyclopentyl)-2-(5-methylisoxazol-3-yloxy)acetamide]
1 to 10	CC[C@@H]1C[C@H](NC(=O)CCC2CCC(=O)N2)C[C@@H]1c1nnc2cnc3[nH]ccc3n12 (stereo partly drawn) [compound 80, N-((1S,3R,4S)-3-ethyl-4-(6H-pyrrolo[2,3-e][1,2,4]triazolo[4,3-a]pyrazin-1-yl)cyclopentyl)-3-(5-oxopyrrolidin-2-yl)propanamide]
1 to 10	CC[C@@H]1C[C@H](NC(=O)c2oc3ccccc3c2C)C[C@@H]1c1nnc2cnc3[nH]ccc3n12 [compound 43, N-((1S,3R,4S)-3-ethyl-4-(6H-pyrrolo[2,3-e][1,2,4]triazolo[4,3-a]pyrazin-1-yl)cyclopentyl)-3-methylbenzofuran-2-carboxamide]
1 to 10	CC[C@@H]1C[C@H](NC(=O)/C=C/c2ccco2)C[C@@H]1c1nnc2cnc3[nH]ccc3n12 [compound 60, (E)-N-((1S,3R,4S)-3-ethyl-4-(6H-pyrrolo[2,3-e][1,2,4]triazolo[4,3-a]pyrazin-1-yl)cyclopentyl)-3-(furan-2-yl)acrylamide]
1 to 10	CC[C@@H]1C[C@H](NC(=O)c2conc2C)C[C@@H]1c1nnc2cnc3[nH]ccc3n12 [compound 34, N-((1S,3R,4S)-3-ethyl-4-(6H-pyrrolo[2,3-e][1,2,4]triazolo[4,3-a]pyrazin-1-yl)cyclopentyl)-3-methylisoxazole-4-carboxamide]
1 to 10	CC[C@@H]1C[C@H](NC(=O)c2ccc(CSC)o2)C[C@@H]1c1nnc2cnc3[nH]ccc3n12 [compound 64, N-((1S,3R,4S)-3-ethyl-4-(6H-pyrrolo[2,3-e][1,2,4]triazolo[4,3-a]pyrazin-1-yl)cyclopentyl)-5-(methylthiomethyl)furan-2-carboxamide]
1 to 10	CCc1cc(C(=O)N[C@H]2C[C@@H](CC)[C@@H](c3nnc4cnc5[nH]ccc5n34)C2)on1 [compound 81, 3-ethyl-N-((1S,3R,4S)-3-ethyl-4-(6H-pyrrolo[2,3-e][1,2,4]triazolo[4,3-a]pyrazin-1-yl)cyclopentyl)isoxazole-5-carboxamide]
1 to 10	CC[C@@H]1C[C@H](NC(=O)c2ccoc2C)C[C@@H]1c1nnc2cnc3[nH]ccc3n12 [compound 52, N-((1S,3R,4S)-3-ethyl-4-(6H-pyrrolo[2,3-e][1,2,4]triazolo[4,3-a]pyrazin-1-yl)cyclopentyl)-2-methylfuran-3-carboxamide]
1 to 10	CCc1ocnc1C(=O)N[C@H]1C[C@@H](CC)[C@@H](c2nnc3cnc4[nH]ccc4n23)C1 [compound 74, 5-ethyl-N-((1S,3R,4S)-3-ethyl-4-(6H-pyrrolo[2,3-e][1,2,4]triazolo[4,3-a]pyrazin-1-yl)cyclopentyl)oxazole-4-carboxamide]
1 to 10	CC[C@@H]1C[C@H](NC(=O)c2noc3c2CCCC3)C[C@@H]1c1nnc2cnc3[nH]ccc3n12 [compound 72, N-((1S,3R,4S)-3-ethyl-4-(6H-pyrrolo[2,3-e][1,2,4]triazolo[4,3-a]pyrazin-1-yl)cyclopentyl)-4,5,6,7-tetrahydrobenzo[d]isoxazole-3-carboxamide]
1 to 10	CC[C@@H]1C[C@H](NC(=O)c2cc(OC)no2)C[C@@H]1c1nnc2cnc3[nH]ccc3n12 [compound 65, N-((1S,3R,4S)-3-ethyl-4-(6H-pyrrolo[2,3-e][1,2,4]triazolo[4,3-a]pyrazin-1-yl)cyclopentyl)-3-methoxyisoxazole-5-carboxamide]
1 to 10	CC[C@@H]1C[C@H](NC(=O)c2ccoc2)C[C@@H]1c1nnc2cnc3[nH]ccc3n12 [compound 56, N-((1S,3R,4S)-3-ethyl-4-(6H-pyrrolo[2,3-e][1,2,4]triazolo[4,3-a]pyrazin-1-yl)cyclopentyl)furan-3-carboxamide]
1 to 10	CC[C@@H]1C[C@H](NC(=O)CCC2CCC2)C[C@@H]1c1nnc2cnc3[nH]ccc3n12 [compound 67, 3-cyclobutyl-N-((1S,3R,4S)-3-ethyl-4-(6H-pyrrolo[2,3-e][1,2,4]triazolo[4,3-a]pyrazin-1-yl)cyclopentyl)propanamide]
1 to 10	CC[C@@H]1C[C@H](NC(=O)CCC2CC2)C[C@@H]1c1nnc2cnc3[nH]ccc3n12 [compound 45, 3-cyclopropyl-N-((1S,3R,4S)-3-ethyl-4-(6H-pyrrolo[2,3-e][1,2,4]triazolo[4,3-a]pyrazin-1-yl)cyclopentyl)propanamide]
1 to 10	CC[C@@H]1C[C@H](NC(=O)Cc2noc3ccccc23)C[C@@H]1c1nnc2cnc3[nH]ccc3n12 [compound 71, 2-(benzo[d]isoxazol-3-yl)-N-((1S,3R,4S)-3-ethyl-4-(6H-pyrrolo[2,3-e][1,2,4]triazolo[4,3-a]pyrazin-1-yl)cyclopentyl)acetamide]
1 to 10	CC[C@@H]1C[C@H](NC(=O)c2cnco2)C[C@@H]1c1nnc2cnc3[nH]ccc3n12 [compound 82, N-((1S,3R,4S)-3-ethyl-4-(6H-pyrrolo[2,3-e][1,2,4]triazolo[4,3-a]pyrazin-1-yl)cyclopentyl)oxazole-5-carboxamide]
